This is an account of results in patent US6906090B1, “Compositions and methods for treating mycobacterial diseases” (AstraZeneca AB, priority 1998, dated 2005).

The assay deals with M. tuberculosis. Kind of assay: BACTEC radiometric MIC test for bactericidal activity against M. tuberculosis. In kind it is cell-based. To be noted: Mycobacterium tuberculosis, read-out: minimum inhibitory concentration (MIC).

`O=C1C(=O)N(CCN2CCN(Cc3ccccc3)CC2)c2ccc(N3CCCCC3)cc21` [Example 8, 5-(1-Piperidinyl)-1-[2-[4-(phenylmethyl)-1-piperazinyl]ethyl]-1H-indole-2,3-dione]: the MIC was at most 20 µg/mL. For `O=C1C(=O)N(CCCCBr)c2c1cccc2-c1ccccc1` [Example 20, 1-(4-Bromobutyl)-7-phenyl-1H-indole-2,3-dione], the MIC was at most 20 µg/mL. As to `CCCCCCCCN1C(=O)C(=O)c2cccc(-c3ccccc3)c21` [Example 12, 1-Octyl-7-phenyl-1-H-indole-2,3-dione], the MIC is at most 20 µg/mL.

`CCCCN1C(=O)C(=O)c2cccc(-c3ccccc3)c21` [Example 16, 1-Butyl-7-phenyl-1H-inidole-2,3-dione]: the MIC was at most 20 µg/mL. The result for `O=C1C(=O)N(CCCCBr)c2ccc(C3CCCCC3)cc21` [Example 9, 1-(4-Bromobutyl)-5-cyclohexyl-1H-indole-2,3-dione] reads at most 20 µg/mL. Under `CCN(CCCCN1C(=O)C(=O)c2ccccc21)Cc1ccccc1` [Example 5, 1-(4-(N-Ethyl-N-phenylmethylamino)butyl)-1H-indole-2,3-dione] stands at most 20 µg/mL; under `CCCCCCCCCCCCN1C(=O)C(=O)c2cccc(-c3ccccc3)c21` [Example 19, 1-Dodecyl-7-phenyl-1H-indole-2,3-dione], at most 20 µg/mL. In the case of `O=C1C(=O)N(CCN2CCN(Cc3ccccc3)CC2)c2ccc(-c3ccccc3)cc21` [Example 6, 5-Phenyl-1-[2-[4-(phenylmethyl)-1-perazinyl]ethyl]-1H-indole-2,3-dione], the MIC was at most 20 µg/mL.

Consider `CCCCCCCN1C(=O)C(=O)c2cccc(-c3ccccc3)c21` [Example 11, 1-Heptyl-7-phenyl-1H-indole-2,3-dione], for which the MIC was at most 20 µg/mL. In the case of `CC(C)CN1C(=O)C(=O)c2cccc(-c3ccccc3)c21` [Example 17, 1-(2-Methylpropyl)-7-phenyl-1H-indole-2,3-dione], the MIC is at most 20 µg/mL. Under `CCN(CCCCCN1C(=O)C(=O)c2cc(C3CCCCC3)ccc21)Cc1ccccc1` [Example 3, 5-Cyclohexyl-1-(5-(N-ethyl-N-phenylmethylamino)pentyl)-1H-indole-2,3-dione] stands at most 20 µg/mL.

With `CCCCCN1C(=O)C(=O)c2cccc(-c3ccccc3)c21` [Example 15, 1-Pentyl-7-phenyl-1H-indole-2,3-dione], the MIC is at most 20 µg/mL. Under `CCCCCCCCCCCN1C(=O)C(=O)c2cccc(-c3ccccc3)c21` [Example 14, 1-Undececyl-7-phenyl-1-H-indole-2,3-dione] stands at most 20 µg/mL; under `CCCCCCN1C(=O)C(=O)c2cccc(-c3ccccc3)c21` [Example 18, 1-Hexyl-7-phenyl-1-indole-2,3-dione], at most 20 µg/mL. Under `O=C1C(=O)N(CCC2CCN(Cc3ccccc3)CC2)c2ccc(C3CCCCC3)cc21` [Example 1, 5-Cyclohexyl-1-[2-[1-(phenylmethyl)-4-piperidinyl]ethyl]-1H-indole-2,3-dione] stands at most 20 µg/mL; under `CCCCCCCCCCN1C(=O)C(=O)c2cccc(-c3ccccc3)c21` [Example 13, 1-Decyl-7-phenyl-1-H-indole-2,3-dione], at most 20 µg/mL. Turning to `CCCCCCCCCN1C(=O)C(=O)c2cccc(-c3ccccc3)c21` [Example 10, 1-Nonyl-7-phenyl-1H-indole-2,3-dione], the MIC is at most 20 µg/mL. Consider `O=C1Cc2cc(C3CCCCC3)ccc2N1CCC1CCN(Cc2ccccc2)CC1` [Example 4, 5-Cyclohexyl-1,3-dihydro-1-[2-[1-(phenylmethyl) 4-piperidinyl]ethyl]-2H-2H-indol-2-one], for which the MIC was at most 20 µg/mL. Under `O=C1C(=O)N(CCN2CCN(Cc3ccccc3)CC2)c2c1cccc2C1CCCCCC1` [Example 2, 7-Cycloheptyl-1-[2-[4-(phenylmethyl)-1-piperazinyl]ethyl]-1H-indole-2,3-dione] stands at most 20 µg/mL; under `O=C1C(=O)N(CCN2CCN(Cc3ccccc3)CC2)c2c1cccc2C1CCCC1` [Example 7, 7-Cyclopentyl-1-[2-[4-(phenylmethyl)-1-piperazinyl]ethyl]-1H-indole-2,3-dione], at most 20 µg/mL.
